In patent US5162203A, “Methods of measuring isozymes and isozyme classes of alcohol dehydrogenase” (President and Fellows of Harvard College, priority 1989, dated 1992):
Read-outs that look alike come from different tables or passages of the source. Blank lines part the entries; values can stand above or below the compound they belong to.

How the values were obtained:
Class I ADH [1] = test: Inhibition of Class I ADH; type: biochemical, human; conditions: for Class I ADH activity abolished: 0.2 mM inhibitor
Protocol: (§1) The linear increase of fluorescence was then recorded for 1-10 minutes, until 0.03-1 μM of substrate was consumed. Larger substrate consumption was not found to be desirable (described in subpart (c) below). After this period the instrument sensitivity setting was reduced 10-30 fold, the signal compensated once again by zero suppression (see part 6 above), and 60 μl of 200-400 μM product (e.g., product IB or IIB) was added to provide an internal standard. The added product fluorescence intensity was then measured Fluorescence measurements were optimized for samples with low activity (<1 nM/minute). For samples with higher activity, repeat measurements were made with the serum volume reduced from 60 μl to 10 μl. Rates measured in the presence of the 0.2 mM ADH inhibitors. 4-MeP or 4-PeP, were made by adding 50 μl of 12 mM inhibitor to the cuvette prior to the assay buffer, and the reaction was carried out as above.
(§2) Aldehyde reduction and 4-MeP inhibition are near optimal at pH 7.6 which was adopted for the study of serum samples.
(§3) The values for these constants were determined with purified Class II ADH or a mixture of purified Class I isozymes, under the fluorometric assay conditions described above in Example 1.

Class III ADH = target: T1, Class III ADH (Homo sapiens, UniProt P11766); test: Inhibition of Class III ADH; type: biochemical
T1 construct: Adult human livers were obtained at autopsy; from tissue; host or cells: human liver obtained at autopsy
T1 sequence (P11766 2-374 limits assumed): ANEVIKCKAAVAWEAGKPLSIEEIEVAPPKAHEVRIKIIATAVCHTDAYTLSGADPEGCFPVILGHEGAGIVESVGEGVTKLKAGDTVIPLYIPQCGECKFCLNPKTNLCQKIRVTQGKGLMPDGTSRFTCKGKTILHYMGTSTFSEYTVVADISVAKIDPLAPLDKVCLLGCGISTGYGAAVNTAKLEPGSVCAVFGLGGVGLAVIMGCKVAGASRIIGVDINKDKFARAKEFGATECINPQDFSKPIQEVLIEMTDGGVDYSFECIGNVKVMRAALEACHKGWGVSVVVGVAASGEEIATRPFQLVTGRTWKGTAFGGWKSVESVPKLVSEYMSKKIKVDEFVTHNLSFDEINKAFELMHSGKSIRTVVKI
Protocol: With a high Km value of >0.5 mM, substrate IIA is completely insensitive for Class III ADH. Because Class III ADH has greater hydrophobic selectivity than Classes I and II ADH, naphthaldehydes and quinoline aldehydes which have aliphatic side chains may provide adequate sensitivity for measuring the amount of Class III ADH in serum. In addition because of its greater hydrophobic selectivity, inhibitor compounds such as 4-alkylpyrazoles having aliphatic side chains of 5 carbons (e.g., 4-PeP) or greater may provide, under certain conditions and at certain concentrations, adequate selectivity for measuring Class III ADH in the presence of Classes I and II. […] At 100 μM 4-PeP, the values for inhibition are: Classes I and II, >90%; Class III <10%. Thus, under certain conditions 4-PeP is clearly useful as a selective inhibitor of Class I and II activities, leaving >90% of Class III activity intact and measurable.

[2] = target: T2, ADH activity in human serum (Homo sapiens, UniProt P08319); test: Inhibition of ADH activity in human sera; type: biochemical; conditions: 17 healthy volunteers
T2 construct: from tissue; host or cells: human serum of patients and volunteers
T2 sequence (P08319 whole entry): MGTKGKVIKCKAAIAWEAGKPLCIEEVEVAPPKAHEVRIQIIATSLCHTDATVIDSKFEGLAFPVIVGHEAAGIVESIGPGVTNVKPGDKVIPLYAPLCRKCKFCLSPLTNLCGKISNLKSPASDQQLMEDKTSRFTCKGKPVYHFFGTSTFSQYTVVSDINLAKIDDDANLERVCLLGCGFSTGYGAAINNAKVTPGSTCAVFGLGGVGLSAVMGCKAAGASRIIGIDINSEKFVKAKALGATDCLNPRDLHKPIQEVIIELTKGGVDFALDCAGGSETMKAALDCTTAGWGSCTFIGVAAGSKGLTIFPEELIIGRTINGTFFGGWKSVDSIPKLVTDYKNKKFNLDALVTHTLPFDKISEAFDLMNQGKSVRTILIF
Protocol: as §1
(§4) The activities of a large group of serum samples were further examined for inhibition by 4-MeP and 4-PeP, both at 0.2 mM, a concentration that abolishes 95-98% of the Class I and Class II ADH activity as shown in Table IV above. […] In contrast, 4-PeP inhibited activity toward IA by greater than […] and IIA by more than 90% in virtually all samples examined (FIG. 8C). The total number of samples examined was 83 for FIG. 8A, 105 for FIG. 8B, and 44 for FIG. 8C.
(§5) Sera whose ADH activity was increased beyond those seen normally were selected based on the modified NDMA assay as described in part 7 of Example 1. In approximately 3% of several hundred random hospital patients tested, elevations in ADH activity were observed using the modified NDMA assay described in part 7 of Example 1. These sera with elevated levels (>2 NDMA mU/ml) were then tested by the fluorometric assay described in part 8 of Example 1 using IA as substrate. Class I ADH activity was detected in nearly all of those classified as having elevated ADH levels by the NDMA criterion. The fluorescent reaction product was analyzed and confirmed to be the alcohol ADH product IB. The observed reaction was inhibited >95% by 3 mM 4-MeP; this confirmed that the activity observed was due primarily to Class I ADH. The rate of reduction of IA was also diminished by the addition of high concentrations (>>Km) of typical ADH substrates, e.g., 0.5 mM benzaldehyde or butyraldehyde, presumably due to competition. […] The optimal dilution for routine measurements was approximately 50-fold.

[3] = test system: ADH activity in human serum; test: Inhibition of ADH activity in human sera; type: biochemical; conditions: for effect on rate of reduction of IA in sera with elevated ADH: 0.5 mM
Protocol: as §1, §4, §5

Class I ADH [4] = test: Inhibition of Class I ADH; type: biochemical, human
Class II ADH [5] = target: T3, Class II ADH (Homo sapiens, UniProt P08319); test: Inhibition of Class II ADH; type: biochemical; design: was used to purify Class II ADH from human livers; from tissue; host or cells: human liver
T3 sequence (P08319 2-380 limits assumed): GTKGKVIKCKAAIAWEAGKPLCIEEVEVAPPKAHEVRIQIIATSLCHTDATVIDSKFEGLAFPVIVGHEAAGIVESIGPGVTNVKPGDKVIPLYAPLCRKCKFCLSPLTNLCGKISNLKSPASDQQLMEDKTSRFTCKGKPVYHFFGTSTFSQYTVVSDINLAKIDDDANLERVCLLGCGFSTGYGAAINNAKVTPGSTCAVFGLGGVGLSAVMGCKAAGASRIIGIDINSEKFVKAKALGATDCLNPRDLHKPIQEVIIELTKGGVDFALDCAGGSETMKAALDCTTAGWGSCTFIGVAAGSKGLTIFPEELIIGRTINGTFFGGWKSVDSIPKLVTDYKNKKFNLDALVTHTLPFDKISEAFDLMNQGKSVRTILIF
Protocol: as §1, §2, §3

Class II ADH [6] = target: T3, Class II ADH; conditions: Class II versus other ADH isozymes; cited from earlier work
β1 β1 ADH (Class I) = test: Inhibition of β1β1 (ββ) ADH; type: biochemical, human
Protocol: as §1, §2

β2 β2 ADH (Class I) = target: T4, β2 β2 ADH (Class I) (Homo sapiens, UniProt P00325); test: Inhibition of β2β2 ADH; type: biochemical; conditions: 0.2 mM 4-MeP
T4 construct: beta2 allele (ADH1B*2)
T4 sequence (P00325 2-375): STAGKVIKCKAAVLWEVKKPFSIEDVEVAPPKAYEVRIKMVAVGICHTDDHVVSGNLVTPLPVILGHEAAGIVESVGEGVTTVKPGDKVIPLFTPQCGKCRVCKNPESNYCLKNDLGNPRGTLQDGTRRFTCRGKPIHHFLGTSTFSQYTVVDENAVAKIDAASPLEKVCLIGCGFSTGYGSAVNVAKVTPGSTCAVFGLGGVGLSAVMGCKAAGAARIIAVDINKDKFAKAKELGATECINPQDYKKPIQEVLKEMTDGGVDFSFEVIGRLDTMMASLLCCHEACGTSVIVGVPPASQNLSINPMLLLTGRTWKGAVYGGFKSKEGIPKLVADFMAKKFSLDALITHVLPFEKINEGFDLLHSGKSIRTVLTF
Protocol: as §1, §2

[7] = Spectral parameters for absorption and fluorescence of ADH substrates and products; type: physicochemical; conditions: for Absorption εmax / Absorption λmax / Fluorescence .phi. (quantum yield) / Fluorescence λmax: Mes buffer (45 mM), pH 7.0
Protocol: The spectral parameters for 4-methoxy-1-naphthaldehyde (IA), 6-methoxy-2-naphthaldehyde (IIA) and their reduction products (IB and IIB, respectively) are shown in Table I.
Ultraviolet absorption spectra were measured on a Cary 219 or Hewlett-Packard 8451 spectrophotometer. Fluorescence measurements were made in a Perkin Elmer MPF3 spectrofluorometer, equipped with an Osram XBO 150 Watt Xenon lamp, an R446 photomultiplier, and thermostatted cell holder through which water was passed from a Poly-Temp circulator with the following spectrometer settings: excitation wavelength 316 nm. bandwidth 8 nm for both substrate IA and IIA; emission wavelength. 370 nm for substrate IA and 360 nm for substrate IIA, emission bandwidth 24 nm. Changes in fluorescence as a result of oxidation or reduction of the substrate was then measured in the ratio mode. Generally, for fluorometric reactions (see part 8 below). a sensitivity setting of 3 was used with compensation of fluorescence background by the zero suppression control of the instrument.
Aldehyde reduction was monitored by following the decrease of absorption at 340 nm in 40 mM Mes buffer, pH 7.1. in the presence of saturating NADH, 50 μM for Class I and 100 μM for Class II. […] Initial reaction rates were measured and kinetic parameters determined by conventional procedures as described by Segel, 1975, Enzyme Kinetics, pp. 591-597, Wiley, N.Y.

[8] = Stability of substrates and product solutions; type: physicochemical; conditions: 200-400 μM, water with <5% ethanol
Protocol: The dilute solutions (300 μM) were prepared by diluting 1 ml of the stock solution to 10 ml with water.
Concentrations were determined spectrophotometrically using a molar absorptivity of 5700 M^-1 cm^-1 at 296 nm for IB and 1270 M^-1 cm^-1 at 330 nm for IIB.

[9] = Fluorescence quenching of alcohol products in 50-fold diluted serum; type: physicochemical, human; conditions: 50-fold dilution of serum
Description: Human serum is known to fluoresce over a broad spectral region (Wolfbeis et al., 1985. Anal. Chim. Acta. 167:203-315); the instrumental settings should therefore be chosen to optimize the signal/background noise ratio. […] A 50-fold dilution of serum minimizes interference and maximizes sensitivity. At this dilution, alcohol product IB is only quenched 15% while IIB is quenched 5%. […] The cause of this background fluorescence is unknown

[10] = 1 mM 4-PeP, pH 10, 0.1M glycine buffer
[11] = 0.2 mM inhibitor, read-out: Class II ADH activity abolished

inhibition at 100 µM (Class III ADH; 100 μM 4-PeP): < 10% | inhibition at 1000 µM (Class III ADH; [10]): 60% | activity at 100 µM (Class III ADH; 4-PeP, under certain conditions, read-out: Class III activity left intact and measurable): > 90% | effect on activity towards IIA in normal sera ([2]; 0.2 mM 4-PeP): abolished | inhibition at 100 µM (Class II ADH [5]; 100 μM 4-PeP): > 90% | inhibition at 200 µM (Class II ADH [5]; [11]): 95 to 98% | inhibition at 1000 µM (Class II ADH [5]; [10]): > 100% | inhibition of Class II activity (Class II ADH [5]; 4-PeP, substrate IIA): more than 90%
SMILES: CCCCCc1cn[nH]c1 [4-PeP, 4-Pentylpyrazole]
Class I ADH activity abolished (Class I ADH [1]): 95-98% | inhibition of Class I activity (Class I ADH [1]; 4-PeP, substrate IA): greater than 99% | inhibition of IIA activity in sera ([3]; 0.2 mM 4-PeP, virtually all samples (44)): more than 90% | inhibition (Class I ADH [4]; 100 μM 4-PeP): > 90% | inhibition of activity (Class I ADH [4]; [10]): > 99.99%

SMILES: CCO [ethanol]
Km for ethanol of Class II relative to other ADH isozymes (Class II ADH [6]): ≤ 100 times

SMILES: O=Cc1ccccc1 [benzaldehyde]
effect on rate of reduction of IA in sera with elevated ADH [3]: diminished

4-MeP Inhibition (β2 β2 ADH (Class I); substrate IA, nm = not measurable): nm | inhibition at 200 µM (β2 β2 ADH (Class I); substrate IIA): 97% | effect on activity towards IIA in normal sera ([2]; 4-MeP): insensitive | inhibition at 200 µM (Class II ADH [5]; 0.2 mM 4-MeP, 15 μM IA or IIA, pH 7.6, read-out: inhibition of Class II ADH): 11% | inhibition at 200 µM (Class II ADH [5]; 0.2 mM 4-MeP, substrate IA, read-out: 4-MeP Inhibition): 11% | inhibition at 200 µM (Class II ADH [5]; 0.2 mM 4-MeP, substrate IIA, as fraction, read-out: c: degree of inhibition of Class II ADH): 11% | inhibition at 200 µM (Class II ADH [5]; [11]): 95 to 98%
SMILES: Cc1cn[nH]c1 [4-MeP, 4-Methylpyrazole]
inhibition of all Class I isozymes (Class I ADH [1]; 0.2 mM 4-MeP, 15 μM IA or IIA, pH 7.6): more than 90% | 4-MeP Inhibition (Class I ADH [1]; 0.2 mM 4-MeP, substrate IA): 98% | b: Class I activity fraction retained (Class I ADH [1]; 0.2 mM 4-MeP, substrate IA): 0.025 | 4-MeP Inhibition (Class I ADH [1]; 0.2 mM 4-MeP, substrate IIA, average for Class I except ββ): 92% | Class I ADH activity abolished (Class I ADH [1]): 95-98% | enhancement of assay specificity for Class I and II isozymes with the two substrates (Class I ADH [1]; 4-MeP, Class I relative to Class II): about 100 fold | 4-MeP Inhibition (β1 β1 ADH (Class I); 0.2 mM 4-MeP, substrate IA): ~ 95% | 4-MeP Inhibition (β1 β1 ADH (Class I); 0.2 mM 4-MeP, substrate IIA): 98% | e: fraction of ββ-ADH activity uninhibited (β1 β1 ADH (Class I); 0.2 mM 4-MeP, substrate IIA): 0.025 | inhibition of Class I ββ isozymes (β1 β1 ADH (Class I); words): inhibited readily | activity toward IIA remaining in sera ([3]; 0.2 mM 4-MeP, 105 samples): ≥ 70% | inhibition of IA activity in sera ([3]; 0.2 mM 4-MeP, majority of samples (83)): more than 90% | inhibition of IA reaction in sera with elevated ADH ([3]; 3 mM 4-MeP): > 95%

Absorption εmax [7]: 1,250 M^-1 cm^-1 | Absorption λmax [7]: 329 nm | Fluorescence .phi. (quantum yield) [7]: 0.26 | Fluorescence λmax [7]: 355 nm | molar absorptivity ([7]; at 330 nm): 1270 M⁻¹ cm⁻¹ | stability of product solutions [8]: stable for up to a week | fluorescence quenching [9]: 5%
SMILES: COc1ccc2cc(CO)ccc2c1 [IIB, 6-methoxy-2-naphthalenemethanol]

Absorption εmax [7]: 5,400 M^-1 cm^-1 | Absorption λmax [7]: 297 nm | Fluorescence .phi. (quantum yield) [7]: 0.36 | Fluorescence λmax [7]: 370 nm | molar absorptivity ([7]; at 296 nm): 5700 M⁻¹ cm⁻¹ | stability of product solutions [8]: stable for up to a week | fluorescence quenching [9]: 15%
SMILES: COc1ccc(CO)c2ccccc12 [IB, 4-methoxy-1-naphthalenemethanol]

SMILES: CCCC=O [butyraldehyde]
effect on rate of reduction of IA in sera with elevated ADH [3]: diminished
